In patent US11839614B2, “Methods for treating or mitigating cardiotoxicity characterized by inhibition of adenosine A2 signaling and/or adenosine A2 receptor expression” (INTRA-CELLULAR THERAPIES, INC., priority 2018, dated 2023):
Structures can show the parent of a compound that is named as a salt.

Experiments:
[1] = tested on: adult rabbit myocytes; test: Contraction and calcium transients in isolated rabbit cardiomyocytes; assay type: cell-based; conditions: for decay kinetics / relaxation times / peak-Ca2+ transient / percent sarcomere shortening: agent alone: Cil 1 μM, Compound 1 1 μM, Iso non-saturating dose
Protocol: To test whether PDE1 inhibition directly impacts cardiomyocyte contraction and calcium transients, studies are carried out on normal adult rabbit myocytes. […] As PDE1 requires sufficient cAMP and Ca^2+ to be impactful, a dose response was performed to the adenylate cyclase activator, forskolin (FSK) to determine the lowest dose producing a modest but significant inotropic effect (1 μM).
Rabbit myocytes were isolated to determine the effect of PDE1 inhibition on cardiomyocyte contraction and whole cell Ca2+ transients, and to compare the results to those with a PDE3 inhibitor, cilostamide (Cil, 1 μM).
An alternative approach to augmenting cAMP independent of […] is to directly stimulate adenylate cyclase using forskolin (Fsk). A dose response study was carried out to identify a non-saturating Fsk dose that still generated significant inotropic effects (1 μM).

[2] = tested on: myocyte cAMP; test: Whole cell cAMP in isolated rabbit myocytes; assay type: cell-based
Source text: This is consistent with prior studies showing locally generated cAMP from β-AR and its modulation by PDE3 occur in local subcellular domains that are not easily detected in whole cell lysates32.

[3] = tested on: rabbit heart and vasculature; test: Anesthetized rabbit pressure-volume hemodynamics with or without esmolol or MRS-1754; assay type: in vivo; conditions: for effect of blocker on Compound 1 responses: atrially paced, fixed heart rate; for impact of inhibitor pre-treatment alone on cardiovascular hemodynamics: rabbit, in vivo
Source text: Cyclic AMP is generated largely by transmembrane adenylyl cyclases activated via stimulatory G protein (Gs), with β-adrenergic, adenosine (primarily A2B), glucagon, prostanoids, histamine, and serotonin all coupling to Gs in cardiomyocytes. The present studies focus on beta-adrenergic and adenosine receptors, and for the latter, concentrated on the A2B receptor, which has been reported to directly stimulate cAMP-dependent contractility. […] Relaxation changes are also modest with LV preload (end-diastolic and volume) unaltered; however, the combined vasodilator-inotropic response doubled ventricular/arterial coupling ratio, Ees/Ea.
New Zealand White rabbits (male, 2-3 kg) are sedated with 35 mg/kg ketamine and 5 mg/kg xylazine, intubated and ventilated (Model 683, Harvard Apparatus, Holliston, Mass.), with anesthesia maintained with isoflurane inhalation (1-2%). A pressure-volume catheter (SPR-894, Millar, Inc., Houston, Tex.) is inserted via the common carotid artery and advanced to the LV apex, and a 2-Fr pacing catheter is positioned in the right atrium via the right jugular vein to provide atrial pacing. […] The parallel conductance is determined by the hypertonic saline injection method. Rabbits are infused with 6% hetastarch in saline during the procedure to stabilize arterial pressure.

[4] = tested on: normal and failing canine hearts; test: Conscious dog pressure-volume hemodynamic analysis, normal and failing hearts; assay type: in vivo; conditions: dobutamine 10 μg/kg/min alone
Source text: Dogs are studied in the conscious state before and after inducing dilated cardiomyopathy by tachypacing for two weeks at 200 bpm. […]
Load insensitive indexes of contractility (dP/dtmax/IP and PRSW) increased.

[5] = tested on: plasma cAMP and cGMP; test: Plasma cAMP and cGMP by ELISA in dogs; assay type: in vivo, dog
Protocol: Blood plasma is obtained from these animals, and cAMP and cGMP are assayed by ELISA.

[6] = agent alone: Iso 50 nM, Compound 1 up to 1 mM, IBMX 100 μM
[7] = agent added to non-saturating Iso

## CC(C)Cn1c(=O)n(C)c(=O)c2[nH]cnc21 [IBMX]
[1]; [6]
  contraction/calcium decay time or rates: increased
  peak Ca2+ transient: did not alter peak calcium transients
  sarcomere shortening: increased shortening

## CC(C)NCC(O)c1ccc(O)c(O)c1 (centres unmarked) [isoproterenol]
[1]
  decay kinetics / relaxation times: quickened relaxation times
  peak-Ca2+ transient: increased
  percent sarcomere shortening: increased
[1]; [6]
  contraction/calcium decay time or rates: accelerates the decay time of both
  peak Ca2+ transient: increases
  sarcomere shortening: increases
[2]; agent alone
  whole cell cAMP: did not measurably increase whole cell cAMP

## CN(C(=O)CCCOc1ccc2[nH]c(=O)ccc2c1)C1CCCCC1 [Cil, cilostamide]
[1]; agent added to Fsk 1 μM
  Ca2+ transient decay rate: faster decay of the Ca2+ transient
  peak Ca2+ transient: increase
  sarcomere shortening: increase in sarcomere shortening
[1]; [7]
  peak-Ca2+: remained elevated over baseline
  sarcomere shortening: further increased sarcomere shortening
[1]
  decay kinetics / relaxation times: accelerated
  peak-Ca2+ transient: rose
  percent sarcomere shortening: rose
[2]; agent added to Fsk
  whole cell cAMP: unaltered
[2]; agent alone
  whole cell cAMP: did not measurably increase whole cell cAMP
[2]; agent combined with Iso
  whole cell cAMP: did not measurably increase whole cell cAMP

## C=C[C@@]1(C)CC(=O)[C@]2(O)[C@@]3(C)[C@@H](O)CCC(C)(C)[C@@H]3[C@H](O)[C@H](OC(C)=O)[C@@]2(C)O1 [forskolin]
[1]; dose response
  lowest (non-saturating) dose producing a modest but significant inotropic effect: 1 µM

## CCCn1c(=O)c2[nH]c(-c3ccc(OCC(=O)Nc4ccc(C#N)cc4)cc3)nc2n(CCC)c1=O [MRS-1754, reference compound]
[3]; MRS-1754 1 mg/kg iv before Compound 1 0.1 mg/kg
  effect of blocker on cardiovascular responses to Compound 1 (heart rate, contractility, vasodilation): eliminated all of the cardiovascular responses to Compound 1
[3]
  effect of blocker on Compound 1 responses: fully blocked
  impact of inhibitor pre-treatment alone on cardiovascular hemodynamics: Neither inhibitor pre-treatment alone has a significant impact

## CC(CCc1ccc(O)cc1)NCCc1ccc(O)c(O)c1 (centres unmarked) [Dobutamine, dobutamine, reference compound]
[4]
  PV loop area (stroke work): increased PV loop area
[5]; HF dogs, single drugs
  plasma cAMP: not significantly changed
[5]; all conditions, normal and HF models
  plasma cGMP: remains unchanged
[5]; normal dogs
  plasma cAMP: augmented plasma cAMP

## COC(=O)CCc1ccc(OCC(O)CNC(C)C)cc1 (centres unmarked) [esmolol, esmolol HCl, reference compound]
[3]
  effect of blocker on Compound 1 responses: unaltered
  impact of inhibitor pre-treatment alone on cardiovascular hemodynamics: Neither inhibitor pre-treatment alone has a significant impact
[3]; esmolol 0.5 mg/kg bolus then 0.05 mg/kg/min
  block of cardiac responses to 10 μg/kg/min dobutamine: effectively blocked
